Experimental data published in PubChem BioAssay (NCI).
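Briefly, cells in 96-well plates were exposed to five compound concentrations for 48 h, and endpoints were estimated by linear interpolation. TGI marks complete inhibition of growth.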

How the values were obtained:
Assay in all cases: NCI-60 cell line screen, 48 h
[1] = test system: A549 NSCLC
[2] = test system: ACHN renal
[3] = test system: HCT-116 colon
[4] = test system: HCT-15 colon
[5] = test system: HOP-92 NSCLC
[6] = test system: HT29 colon
[7] = test system: IGROV1 ovarian
[8] = test system: K-562 leukemia
[9] = test system: LOX IMVI melanoma
[10] = test system: NCI-H522 lung
[11] = test system: OVCAR-3 ovarian
[12] = test system: RPMI-8226 leukemia
[13] = test system: SF-295 CNS
[14] = test system: SF-539 CNS
[15] = test system: SK-MEL-5 melanoma
[16] = test system: SN12C renal
[17] = test system: SW-620 colon
[18] = test system: HCC-2998 colon
[19] = test system: RXF 393 renal

Row | SMILES | TGI [1] | TGI [2] | TGI [3] | TGI [4] | TGI [5] | TGI [6] | TGI [7] | TGI [8] | TGI [9] | TGI [10] | TGI [11] | TGI [12] | TGI [13] | TGI [14] | TGI [15] | TGI [16] | TGI [17] | TGI [18] | TGI [19]
1 | CSc1nc2c(c(O)c(C)c(=O)n2C2OCC(OC(C)=O)C(OC(C)=O)C2OC(C)=O)c(=O)n1C (centres undefined) | > 100 µM | > 100 µM | > 100 µM | > 100 µM | > 100 µM | > 100 µM | > 100 µM | > 100 µM | > 100 µM | > 100 µM | > 100 µM | > 100 µM | > 100 µM | > 100 µM | > 100 µM | > 100 µM | > 100 µM |  | 
2 | COc1ccc(N2C(=O)[C@@H]3[C@H](C2=O)c2[nH]c4ccccc4c2C2CCC(C(C)(C)C)C[C@@H]23)cc1 (some centres undefined) | > 80.3 µM | 87.6 µM | > 100 µM | > 100 µM |  | > 100 µM | > 100 µM | > 31.6 µM | > 58.6 µM | 62.7 µM | > 75.7 µM | > 100 µM | 29.4 µM | 62.6 µM | > 100 µM | 37.5 µM | > 100 µM | > 100 µM | 46 µM
3 | COC(=O)NC(=O)c1cn(CCCOC(=O)CCCCCCCCC(=O)OCCCn2cc(C(=O)NC(=O)OC)c(=O)[nH]c2=O)c(=O)[nH]c1=O | > 100 µM | > 100 µM | > 100 µM | > 100 µM | 95.2 µM | > 100 µM | > 100 µM | > 100 µM | > 100 µM |  | > 100 µM | > 100 µM | > 100 µM | > 100 µM | > 100 µM | > 100 µM | > 100 µM | > 100 µM | 75 µM
4 | Brc1ccc2c(c1)C1C(CO2)C(c2ccccc2)=NN1c1ccccc1 (centres undefined) | > 100 µM | > 100 µM | > 100 µM |  | > 100 µM | > 100 µM | > 100 µM | > 100 µM | > 100 µM |  | > 100 µM | > 100 µM | > 100 µM |  |  |  | > 100 µM | > 100 µM | > 100 µM
5 | O=C(O)Cn1c(=O)[nH]c(=O)c2[nH]cnc21 | > 100 µM | > 100 µM | > 100 µM | > 100 µM |  | > 100 µM | > 100 µM | > 100 µM | > 100 µM | > 100 µM | > 100 µM |  |  | > 100 µM | > 100 µM | > 100 µM | > 100 µM | > 100 µM | > 100 µM
6 | Cc1cc(N(CCC#N)CCC#N)ccc1N=Nc1cccc(Cl)c1 | > 100 µM | > 100 µM | > 100 µM |  | > 100 µM | > 100 µM |  | > 100 µM |  | > 100 µM | > 100 µM | > 100 µM | > 100 µM | > 100 µM | > 100 µM | > 100 µM | > 100 µM |  | > 100 µM
7 | CCC1(N=[N+]=[N-])C(=O)c2ccccc2N(c2ccccc2)C1=O (centres undefined) | > 100 µM | > 100 µM | > 100 µM | > 100 µM | > 100 µM | > 100 µM | > 100 µM | > 100 µM | > 100 µM | > 100 µM | > 100 µM |  | > 100 µM | > 100 µM | > 100 µM | > 100 µM | > 100 µM | > 100 µM | 
8 | CC(=O)c1sc(Nc2ccc(Cl)c(Cl)c2)nc1C | > 100 µM | > 100 µM | > 100 µM | > 100 µM |  | > 100 µM | > 100 µM |  | > 100 µM |  | > 100 µM | > 100 µM | > 100 µM | > 100 µM | > 100 µM | > 100 µM | > 100 µM | > 100 µM | > 100 µM
9 | N#CC(C(=N/NC(N)=S)/C(=N/NC(N)=S)C(C#N)c1ccc(Cl)cc1)c1ccc(Cl)cc1 (centres undefined) | > 100 µM | > 100 µM | > 100 µM | > 100 µM | > 100 µM | > 100 µM | > 100 µM | > 100 µM | > 100 µM | > 100 µM | > 100 µM |  | > 100 µM | > 100 µM | > 100 µM | > 100 µM | > 100 µM | > 100 µM | > 100 µM
10 | CCN(CC)Cc1cc(Nc2c3ccccc3nc3c4ccccc4n(C)c23)ccc1O | 28.2 µM | 24 µM | 19.5 µM | 22.8 µM | 18.9 µM | 17.8 µM | 31.2 µM | 7.65 µM | 9.1 µM | 6.39 µM |  | 15.3 µM | 21.8 µM | 10.9 µM | 6.6 µM | 27.5 µM | 18.6 µM |  | 25.5 µM
11 | CC1C=C[C@H](Sc2ccccc2)CC[C@@]1(C)O (some centres undefined) | > 100 µM | > 100 µM | > 100 µM | > 100 µM | > 100 µM | > 100 µM | > 100 µM | > 100 µM | > 100 µM |  |  | > 100 µM |  | > 100 µM | > 100 µM | > 100 µM | > 100 µM | > 100 µM | > 100 µM
12 | CCOC(=O)c1[nH]c(CN(C)Cc2[nH]c(C(=O)OCC)c(C)c2C(=O)OCc2ccccc2)c(C(=O)OCc2ccccc2)c1C | 98.2 µM | > 100 µM | 38 µM | > 100 µM | 8.73 µM | 8.01 µM | > 100 µM | > 100 µM | > 100 µM | 36.7 µM | 28.3 µM |  | > 100 µM | 21.3 µM | 22.2 µM | 34.5 µM | > 100 µM | > 100 µM | 22.3 µM
13 | COc1ccc(NC(=O)CC(=O)N/N=C/c2ccc(N(CCC#N)S(=O)(=O)c3ccccc3)cc2)cc1 | > 100 µM | > 100 µM | > 100 µM | > 100 µM | > 100 µM | > 100 µM | > 100 µM | > 100 µM | > 100 µM | > 100 µM | > 100 µM | > 100 µM | > 100 µM |  | > 100 µM |  | > 100 µM | > 100 µM | 
14 | Cc1nc2c(n1CCN(C)C)C(=O)c1ccccc1C2=O | 52.8 µM | 31.5 µM | 33 µM | 26 µM |  | 65.1 µM | 26.5 µM | 48.4 µM | 39.1 µM | 18.5 µM | 20 µM |  | 30.9 µM | 46.3 µM | 20.4 µM | 35.8 µM | 29 µM | 47.7 µM | 68.2 µM
15 | COC(=O)CCc1cccnc1/C=N/O | > 100 µM | > 100 µM | > 100 µM | > 100 µM | > 100 µM | > 100 µM | > 100 µM | > 100 µM | > 100 µM | > 100 µM | > 100 µM |  | > 100 µM | > 100 µM | > 100 µM | > 100 µM | > 100 µM |  | > 100 µM
16 | CC(C)(Oc1ccc2c(=O)cc(-c3ccccc3)oc2c1)C(=O)Nc1c(Cl)cccc1Cl | > 100 µM |  | > 100 µM | > 100 µM | > 100 µM | > 100 µM | > 100 µM | > 100 µM | > 100 µM | > 100 µM | > 100 µM | > 100 µM | > 100 µM | > 100 µM | > 100 µM |  | > 100 µM |  | 30.2 µM
17 | COC(=O)C1N=CSCC1(C)O (centres undefined) | > 100 µM | > 100 µM | > 100 µM | > 100 µM | > 100 µM | > 100 µM | > 100 µM | > 100 µM | > 100 µM |  | > 100 µM | > 100 µM | > 100 µM | > 100 µM | > 100 µM | > 100 µM | > 100 µM | > 100 µM | > 100 µM
18 | CCc1cccc(CC)c1NC(=O)C1=C(C)NC(C)=C(C(=O)Nc2c(CC)cccc2CC)C1c1ccc2c(c1)OCO2 | 66.5 µM | 39 µM | 35.7 µM | 26.8 µM | 32.1 µM | 30.4 µM | 44.2 µM | 38.2 µM | 26 µM | 27.2 µM | 27.2 µM | > 100 µM | 29.2 µM | 37.8 µM | 33 µM | 28.7 µM | 31.5 µM | 36.7 µM | 
19 | Cc1n[nH]c(=O)n1/N=C/c1ccncc1 | > 100 µM | > 100 µM | > 100 µM | > 100 µM | > 100 µM | > 100 µM | > 100 µM | > 100 µM | > 100 µM | > 100 µM | > 100 µM |  | > 100 µM | > 100 µM | > 100 µM | > 100 µM | > 100 µM | > 100 µM | > 100 µM
20 | Cc1nc(Nc2ccccc2)sc1C(=O)NNc1ccc([N+](=O)[O-])cc1[N+](=O)[O-] | > 100 µM | > 100 µM | > 100 µM | > 100 µM |  | > 100 µM | > 100 µM | 60.1 µM | 87.9 µM | 49.3 µM | > 100 µM |  | > 100 µM | > 100 µM | 68.5 µM | > 100 µM | > 100 µM | > 100 µM | 78.5 µM
21 | CC(C(=O)c1ccc(Cl)cc1)C1OC(=O)C(Cl)=C1Cl (centres undefined) | > 100 µM | > 100 µM |  | 50.5 µM |  | > 100 µM | > 100 µM | 58.8 µM | 47.3 µM | 37.7 µM | 71.9 µM | 70.8 µM | > 100 µM | 70.9 µM | > 100 µM | 56.3 µM | > 100 µM | 63.5 µM | 35.4 µM
